The text below walks through data of patent US11786513B2, “Compositions comprising berberine” (INDENA S.P.A., priority 2018, dated 2023).

For data set [1] the following is noted: oral administration; cited from earlier work.
The nature of data set [2]: Solubility test in simulated biological fluids (FaSSGF), UPLC. Type of data set: physicochemical. The conditions noted are these: Fasted-State Simulated Gastric Fluid (FaSSGF), fassgf or other biorelevant, thermodynamic from solid, pH 1.6, samples containing equal amounts of BBR. The method, then: The solubility test was conducted by comparing samples containing equal amounts of BBR. […] The analysis was conducted by the UPLC (Ultra High Performance Liquid Chromatography) method described below: ANALYSIS CONDITIONS: Flow rate: 0.4 ml/minute; Detection: 348 nm. SAMPLE SOLUTION: 30 mg in 200 ml (Chromatogram of a typical sample of ˜0.15 mg/ml, in FIG. 1). STANDARD SOLUTION: 10 mg of pure reference BBR in 200 ml of methanol (Standard solution ˜0.05 mg/ml, typical chromatogram in FIG. 2). The solubility test was conducted using Fasted-State Simulated Gastric Fluid (FaSSGF), prepared as reported below, as solvent. 1) Preparation of an NaCl/HCl solution for FaSSGF (1 litre): 2 g of NaCl was dissolved in […] of purified water, the pH was adjusted to 1.6 with HCl, and the mixture was made up to volume with purified water (1 litre). 2) 0.06 g of powder* (FaSSGF—Biorelevant media) was added to about 500 ml of the NaCl/HCl solution at room temperature and made up to volume (1 l) with the NaCl/HCl solution to obtain a clear, ready-for-use liquid. *Final sodium taurocholate 0.08 mM, final lecithin 0.02 mM

Some results are limits rather than exact numbers.

As to `COc1ccc2cc3[n+](cc2c1OC)CCc1cc2c(cc1-3)OCO2` [BBR, Berberine], in data set [1], the “fraction which reaches the systemic circulation” value is 0.36% and the oral absorption was ≤ 0.5 % of the administered dose. In data set [2], `COc1ccc2cc3[n+](cc2c1OC)CCc1cc2c(cc1-3)OCO2` [Reference 1, berberine] registered a solubility of 113 µg/mL.

What is called solubility is the concentration that dissolves in the medium under given conditions.
